Measured values published in patent publication US20240026461A1, “BCL10 MUTATIONS AS BIOMARKERS FOR TARGETED THERAPY IN B CELL LYMPHOMAS” (priority 2022, published 2024).

Key:
[1] = target: T1, full-length MALT1 protein (Strep-MALT1(1-824)-His) (Homo sapiens, UniProt Q9UDY8); assay: Biochemical evaluation of MALT1 protease activity (Ac-LRSR-AMC cleavage); conditions: preincubated 50 min at RT, substrate Ac-LRSR-AMC 4 h; read-out: IC50, MALT1 enzyme
T1 construct: full-length MALT1 protein (Strep-MALT1(1-824)-His); Strep (N); His (C); made in house; host or cells: baculovirus-infected insect cells
T1 sequence (Q9UDY8 whole entry): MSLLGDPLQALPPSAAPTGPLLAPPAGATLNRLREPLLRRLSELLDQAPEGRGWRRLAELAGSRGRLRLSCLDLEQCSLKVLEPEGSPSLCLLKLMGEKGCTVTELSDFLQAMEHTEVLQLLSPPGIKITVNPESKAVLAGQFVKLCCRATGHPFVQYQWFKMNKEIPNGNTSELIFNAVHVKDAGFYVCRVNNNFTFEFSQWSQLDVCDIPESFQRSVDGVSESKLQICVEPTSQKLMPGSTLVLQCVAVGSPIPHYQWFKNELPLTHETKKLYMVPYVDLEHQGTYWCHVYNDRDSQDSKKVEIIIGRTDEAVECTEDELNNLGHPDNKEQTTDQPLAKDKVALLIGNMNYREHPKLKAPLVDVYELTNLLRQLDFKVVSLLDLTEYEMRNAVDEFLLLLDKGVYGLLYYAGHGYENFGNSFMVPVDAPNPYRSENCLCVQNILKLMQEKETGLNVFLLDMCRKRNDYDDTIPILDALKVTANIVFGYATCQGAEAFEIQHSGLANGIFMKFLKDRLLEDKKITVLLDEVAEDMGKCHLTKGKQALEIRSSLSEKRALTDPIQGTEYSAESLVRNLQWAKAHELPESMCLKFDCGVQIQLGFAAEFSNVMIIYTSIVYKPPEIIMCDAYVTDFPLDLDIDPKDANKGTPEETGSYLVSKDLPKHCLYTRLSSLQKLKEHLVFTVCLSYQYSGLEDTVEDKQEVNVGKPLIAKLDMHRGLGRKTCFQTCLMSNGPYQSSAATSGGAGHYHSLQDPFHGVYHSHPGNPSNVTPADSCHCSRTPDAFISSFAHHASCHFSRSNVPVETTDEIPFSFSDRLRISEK
Experimental: FIG. 21A. Chemical structure of JNJ-67690246. FIG. 21B. IC50 values for JNJ-67690246 in biochemical enzymatic and cellular cytokine secretion assays. MALT1 proteolytic IC50: purified recombinant MALT1 was preincubated for 50 min at RT with JNJ-67690246, substrate Ac-LRSR-AMC was then incubated for 4 h. MALT1 proteolytic activity was determined by measuring the increase of AMC fluorescence. […] FIG. 21C. Table for IC50 values of three different MALT1 inhibitors measured in HBL1 and OCI-Ly10 cells expressing WT and mutant BCL10. D-F. MALT1 activity measured in OCI-Ly10 GloSensor reporter cells treated with MALT1 inhibitors. […] FIG. 21G-I. NF-κB activity measured in NF-κB-RE-luciferase reporter cell lines treated with MALT1 inhibitors. […]
MALT1 protease activity was assessed in vitro using full-length MALT1 protein (Strep-MALT1(1-824)-His) purified from baculovirus-infected insect cells. […] Cleavage of AMC from the arginine residue results in an increase in coumarin fluorescence measured at 460 nm (excitation 355 nm). […] Substrate was added and the reaction was then incubated for 4 h at RT, after which fluorescence was measured.
MALT1 protease activity was assessed in vitro using full-length MALT1 protein (Strep-MALT1 (1-824)-His) purified from baculovirus-infected insect cells. […] Cleavage of AMC from the arginine residue results in an increase in coumarin fluorescence measured at 460 nm (excitation 355 nm). […]

HBL1^WT = assay: Growth inhibition assay (CellTiter Glo), HBL1 cells expressing BCL10 WT; type: cell-based; conditions: Homo sapiens, 96 h, read-out: IC50, growth inhibition, MALT1 inhibitors
Experimental: (§1) DLBCL cell lines were cultured in exponential condition and the cell growth was determined by CellTiter Glo (Promega). 3000-5000 cells were seeded and cultured in each well of 384 well plate for 96 h and treated with compounds every 48 h. Luminescence was read at the endpoint with the Synergy NEO microplate reader (BioTek). The value of compound treated cells was normalized to their vehicle treated controls and then used to calculate IC50 in GraphPad Prism (RRID:SCR_002798).
(§2) Given the distinct functional profiles, CARD11 dependencies, and MALT1 activation effects of the BCL10 CARD and truncation mutants, the inventors designed experiments to evaluate whether, and to what extent, these mutant BCL10 proteins might confer BTK inhibitor resistance. Isogenic ABC-DLBCL cells expressing BCL10WT, BCL10^R58Q and BCL10^E140X proteins were treated with escalating doses of three chemically distinct covalent BTK inhibitors: ibrutinib, acalabrutinib, or zanubrutinib. The cellular proliferation rates of the treated cells were measured using an ATP fluorescence assay after 96 hours of drug exposure.
(§3) Isogenic BCL10^WT, BCL10^R58Q and BCL10^E140X ABC-DLBCLs were exposed to increasing concentrations of each of these compounds for 96 hours.

OCI-LY10^R58Q = assay: Growth inhibition assay (CellTiter Glo), OCI-Ly10 cells expressing BCL10 R58Q; type: cell-based; conditions: Homo sapiens, 96 h, read-out: IC50, growth inhibition, MALT1 inhibitors
Experimental: as §1, §2, §3

[2] = system: IL-10 secretion by OCI-Ly3 ABC-DLBCL cells; assay: IL-10 secretion assay using OCI-Ly3 cells (MSD); type: cell-based; conditions: Homo sapiens, 24 h, read-out: IC50, IL10 secretion
Experimental: FIG. 21A. Chemical structure of JNJ-67690246. FIG. 21B. IC50 values for JNJ-67690246 in biochemical enzymatic and cellular cytokine secretion assays. MALT1 proteolytic IC50: purified recombinant MALT1 was preincubated for 50 min at RT with JNJ-67690246, substrate Ac-LRSR-AMC was then incubated for 4 h. MALT1 proteolytic activity was determined by measuring the increase of AMC fluorescence. […] FIG. 21C. Table for IC50 values of three different MALT1 inhibitors measured in HBL1 and OCI-Ly10 cells expressing WT and mutant BCL10. D-F. MALT1 activity measured in OCI-Ly10 GloSensor reporter cells treated with MALT1 inhibitors. OCI-Ly10 MALT1 GloSensor cells were stably expressing wildtype and mutant BCL10, then treated with MALT1 inhibitors of different range (10-0.3 uM). FIG. 21G-I. NF-κB activity measured in NF-κB-RE-luciferase reporter cell lines treated with MALT1 inhibitors. HBL1 NF-κB reporter cells lines were stably expressing wildtype and mutant BCL10, and then treated with MALT1 inhibitors of different range (10-0.3 uM). NF-xB activity was performed 24 h after treatment. Error bars indicate SEM with 4 biological replicates. p<0.05; “p<0.01; “<0.001; ****p<0.0001; ns, not significant.
Secretion of the IL-6 and IL-10 cytokines by OCI-Ly3 ABC-DLBCL cells was measured using a Mesoscale assay (MSD). MALT1 inhibition results in a decrease of IL-6/10 secretion. […] Plates were read on a SECTOR imager.

IC50 [1]: 15 nM | IC50 (OCI-LY10^R58Q): 780 ± 200 nM | IC50 [2]: 60 nM
Structure (SMILES): Cc1nc(-n2nccn2)c(Cl)cc1NC(=O)c1cnn(-c2cccc3c(=O)[nH]ccc23)c1C(F)(F)F [JNJ-67690246]
IC50 (HBL1^WT): 1580 ± 500 nM
